Data: PubChem BioAssay (NCI)
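Values below derive from 48-hour exposures of cells grown in 96-well plates, with endpoints linearly interpolated between the two concentrations bracketing the appropriate inhibition level. TGI: total growth inhibition.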

Tests used:
Experiment in all cases: NCI-60 cell line screen, 48 h
SK-MEL-28 melanoma = system: SK-MEL-28 melanoma
SNB-75 CNS = system: SNB-75 CNS
OVCAR-5 ovarian = system: OVCAR-5 ovarian
HCC-2998 colon = system: HCC-2998 colon
MOLT-4 leukemia = system: MOLT-4 leukemia
EKVX NSCLC = system: EKVX NSCLC
A549 NSCLC = system: A549 NSCLC
UACC-257 melanoma = system: UACC-257 melanoma
NCI-H522 lung = system: NCI-H522 lung
RXF-631 renal = system: RXF-631 renal
HT29 colon = system: HT29 colon
U251 CNS = system: U251 CNS
OVCAR-8 ovarian = system: OVCAR-8 ovarian
SNB-78 CNS = system: SNB-78 CNS
DLD-1 colon = system: DLD-1 colon
DMS 114 small cell lung = system: DMS 114 small cell lung
786-0 renal = system: 786-0 renal
SN12C renal = system: SN12C renal
HOP-62 NSCLC = system: HOP-62 NSCLC
RPMI-8226 leukemia = system: RPMI-8226 leukemia
TK-10 renal = system: TK-10 renal
LXFL 529 NSCLC = system: LXFL 529 NSCLC
OVCAR-3 ovarian = system: OVCAR-3 ovarian
K-562 leukemia = system: K-562 leukemia
KM12 colon = system: KM12 colon
HL-60(TB) leukemia = system: HL-60(TB) leukemia
NCI-H226 lung = system: NCI-H226 lung
SNB-19 CNS = system: SNB-19 CNS
A498 renal = system: A498 renal
CCRF-CEM leukemia = system: CCRF-CEM leukemia
UACC-62 melanoma = system: UACC-62 melanoma
NCI-H460 lung = system: NCI-H460 lung
KM20L2 colon = system: KM20L2 colon
HCT-15 colon = system: HCT-15 colon
M14 melanoma = system: M14 melanoma
COLO 205 colon = system: COLO 205 colon
IGROV1 ovarian = system: IGROV1 ovarian
DMS 273 small cell lung = system: DMS 273 small cell lung
SW-620 colon = system: SW-620 colon
HCT-116 colon = system: HCT-116 colon
SF-295 CNS = system: SF-295 CNS
CAKI-1 renal = system: CAKI-1 renal
RXF 393 renal = system: RXF 393 renal
OVCAR-4 ovarian = system: OVCAR-4 ovarian
UO-31 renal = system: UO-31 renal
ACHN renal = system: ACHN renal
SF-539 CNS = system: SF-539 CNS
LOX IMVI melanoma = system: LOX IMVI melanoma
SR leukemia = system: SR leukemia
NCI-H23 lung = system: NCI-H23 lung
SF-268 CNS = system: SF-268 CNS
SK-MEL-2 melanoma = system: SK-MEL-2 melanoma
SK-OV-3 ovarian = system: SK-OV-3 ovarian
HOP-18 NSCLC = system: HOP-18 NSCLC
SK-MEL-5 melanoma = system: SK-MEL-5 melanoma
M19-MEL melanoma = system: M19-MEL melanoma
MALME-3M melanoma = system: MALME-3M melanoma
XF 498 CNS = system: XF 498 CNS
HOP-92 NSCLC = system: HOP-92 NSCLC

COc1cc(C(=O)N2CCc3c([nH]c4c([N+](=O)[O-])c(OC)ccc34)C2C)cc(OC)c1OC (stereo not given) gave a TGI (SK-MEL-28 melanoma) greater than 100 µM, a TGI (SNB-75 CNS) of 98.3 µM and a TGI (OVCAR-5 ovarian) greater than 100 µM. It also gave a TGI (HCC-2998 colon) greater than 100 µM, a TGI (MOLT-4 leukemia) greater than 100 µM and a TGI (EKVX NSCLC) greater than 100 µM. The TGI (A549 NSCLC) was greater than 100 µM, the TGI (UACC-257 melanoma) was greater than 100 µM and the TGI (NCI-H522 lung) was greater than 100 µM. The TGI (RXF-631 renal) was greater than 100 µM, the TGI (HT29 colon) was greater than 100 µM and the TGI (U251 CNS) was greater than 100 µM. It also gave a TGI (OVCAR-8 ovarian) greater than 100 µM, a TGI (SNB-78 CNS) greater than 100 µM and a TGI (DLD-1 colon) greater than 100 µM. For the same molecule, the TGI (DMS 114 small cell lung) was greater than 100 µM, the TGI (786-0 renal) was greater than 100 µM and the TGI (SN12C renal) was greater than 100 µM. The TGI (HOP-62 NSCLC) was greater than 100 µM, the TGI (RPMI-8226 leukemia) was greater than 100 µM and the TGI (TK-10 renal) was greater than 100 µM. It also gave a TGI (LXFL 529 NSCLC) greater than 100 µM, a TGI (OVCAR-3 ovarian) greater than 100 µM and a TGI (K-562 leukemia) greater than 100 µM. It also gave a TGI (KM12 colon) greater than 100 µM, a TGI (HL-60(TB) leukemia) greater than 100 µM and a TGI (NCI-H226 lung) greater than 100 µM. The TGI (SNB-19 CNS) was greater than 100 µM, the TGI (A498 renal) was greater than 100 µM and the TGI (CCRF-CEM leukemia) was greater than 100 µM. The TGI (UACC-62 melanoma) was 39.5 µM, the TGI (NCI-H460 lung) was greater than 100 µM and the TGI (KM20L2 colon) was greater than 100 µM. For the same molecule, the TGI (HCT-15 colon) was greater than 100 µM, the TGI (M14 melanoma) was greater than 100 µM and the TGI (COLO 205 colon) was greater than 100 µM. It also gave a TGI (IGROV1 ovarian) of 22.3 µM, a TGI (DMS 273 small cell lung) greater than 100 µM and a TGI (SW-620 colon) greater than 100 µM. It also gave a TGI (HCT-116 colon) greater than 100 µM, a TGI (SF-295 CNS) greater than 100 µM and a TGI (CAKI-1 renal) greater than 100 µM. It also gave a TGI (RXF 393 renal) of 91.2 µM, a TGI (OVCAR-4 ovarian) greater than 100 µM and a TGI (UO-31 renal) greater than 100 µM. For the same molecule, the TGI (ACHN renal) was greater than 100 µM, the TGI (SF-539 CNS) was greater than 100 µM and the TGI (LOX IMVI melanoma) was greater than 100 µM. The TGI (SR leukemia) was greater than 100 µM, the TGI (NCI-H23 lung) was greater than 100 µM and the TGI (SF-268 CNS) was greater than 100 µM. For the same molecule, the TGI (SK-MEL-2 melanoma) was greater than 100 µM.
In the case of C=CCn1c2c(sc1=S)C(S)N=CN2 (stereo not given), the TGI (SK-MEL-28 melanoma) is reported as greater than 100 µM, the TGI (SNB-75 CNS) is reported as greater than 100 µM and the TGI (OVCAR-5 ovarian) is reported as greater than 100 µM. For the same molecule, the TGI (HCC-2998 colon) was greater than 100 µM, the TGI (MOLT-4 leukemia) was greater than 100 µM and the TGI (EKVX NSCLC) was greater than 100 µM. It also gave a TGI (A549 NSCLC) greater than 100 µM, a TGI (UACC-257 melanoma) greater than 100 µM and a TGI (NCI-H522 lung) greater than 100 µM. It also gave a TGI (SK-OV-3 ovarian) greater than 100 µM, a TGI (HT29 colon) greater than 100 µM and a TGI (U251 CNS) greater than 100 µM. The TGI (OVCAR-8 ovarian) was greater than 100 µM, the TGI (HOP-18 NSCLC) was 70.1 µM and the TGI (SNB-78 CNS) was greater than 100 µM. The TGI (DLD-1 colon) was greater than 100 µM, the TGI (DMS 114 small cell lung) was greater than 100 µM and the TGI (SK-MEL-5 melanoma) was greater than 100 µM. It also gave a TGI (786-0 renal) greater than 100 µM, a TGI (SN12C renal) greater than 100 µM and a TGI (HOP-62 NSCLC) greater than 100 µM. It also gave a TGI (RPMI-8226 leukemia) greater than 100 µM, a TGI (TK-10 renal) greater than 100 µM and a TGI (LXFL 529 NSCLC) greater than 100 µM. For the same molecule, the TGI (M19-MEL melanoma) was greater than 100 µM, the TGI (OVCAR-3 ovarian) was greater than 100 µM and the TGI (K-562 leukemia) was greater than 100 µM. It also gave a TGI (KM12 colon) greater than 100 µM, a TGI (HL-60(TB) leukemia) greater than 100 µM and a TGI (NCI-H226 lung) greater than 100 µM. It also gave a TGI (SNB-19 CNS) greater than 100 µM, a TGI (A498 renal) greater than 100 µM and a TGI (CCRF-CEM leukemia) greater than 100 µM. It also gave a TGI (UACC-62 melanoma) greater than 100 µM, a TGI (NCI-H460 lung) greater than 100 µM and a TGI (KM20L2 colon) greater than 100 µM. The TGI (HCT-15 colon) was greater than 100 µM, the TGI (M14 melanoma) was greater than 100 µM and the TGI (COLO 205 colon) was greater than 100 µM. The TGI (MALME-3M melanoma) was greater than 100 µM, the TGI (IGROV1 ovarian) was greater than 100 µM and the TGI (DMS 273 small cell lung) was greater than 100 µM. For the same molecule, the TGI (SW-620 colon) was greater than 100 µM, the TGI (HCT-116 colon) was greater than 100 µM and the TGI (SF-295 CNS) was greater than 100 µM. It also gave a TGI (CAKI-1 renal) greater than 100 µM, a TGI (RXF 393 renal) greater than 100 µM and a TGI (OVCAR-4 ovarian) greater than 100 µM. It also gave a TGI (UO-31 renal) greater than 100 µM, a TGI (ACHN renal) greater than 100 µM and a TGI (SF-539 CNS) greater than 100 µM. It also gave a TGI (XF 498 CNS) greater than 100 µM, a TGI (LOX IMVI melanoma) greater than 100 µM and a TGI (SR leukemia) greater than 100 µM. For the same molecule, the TGI (NCI-H23 lung) was greater than 100 µM, the TGI (HOP-92 NSCLC) was 55 µM and the TGI (SF-268 CNS) was greater than 100 µM. The TGI (SK-MEL-2 melanoma) was greater than 100 µM.
